± gives the expanded uncertainty stated by the source.

This series can be described thus: activity coefficient (dimensionless); of the first substance listed, at infinite dilution; xn = mol fraction of the nth substance listed. The settings on record: 101 kPa, Liquid, Chromatography, x1 = 0.

Take `CCO` [ethanol] + CCCC[N+](C)(CCCC)CCCC.COS(=O)(=O)[O-]: the activity coefficient by setting is: (338.15 K) 0.24 ± 0.03; (348.15 K) 0.2 ± 0.03; (358.15 K) 0.19 ± 0.03; (368.15 K) 0.17 ± 0.03.

On to `CO` [methanol] + CCCC[N+](C)(CCCC)CCCC.COS(=O)(=O)[O-], for which the activity coefficient was found to be 0.16 ± 0.03 (338.15 K), 0.15 ± 0.03 (348.15 K), 0.14 ± 0.03 (358.15 K) and 0.13 ± 0.03 (368.15 K).

For `CCCCO` [butan-1-ol] + CCCC[N+](C)(CCCC)CCCC.COS(=O)(=O)[O-], the activity coefficient reads like this: (338.15 K) 0.4 ± 0.03; (348.15 K) 0.31 ± 0.03; (358.15 K) 0.25 ± 0.03; (368.15 K) 0.22 ± 0.03.

In the case of `CC(C)(C)O` [2-methylpropan-2-ol] + CCCC[N+](C)(CCCC)CCCC.COS(=O)(=O)[O-], the activity coefficient (338.15 K) is 0.32 ± 0.03, the activity coefficient (348.15 K) was 0.28 ± 0.03, the activity coefficient (358.15 K) is 0.25 ± 0.03 and the activity coefficient (368.15 K) was found to be 0.23 ± 0.03.

Turning to `CCCO` [propan-1-ol] + CCCC[N+](C)(CCCC)CCCC.COS(=O)(=O)[O-], the activity coefficient came out at 0.29 ± 0.03 (338.15 K), 0.24 ± 0.03 (348.15 K), 0.21 ± 0.03 (358.15 K) and 0.18 ± 0.03 (368.15 K).

With `CCC(C)O` (centres undefined) [butan-2-ol] + CCCC[N+](C)(CCCC)CCCC.COS(=O)(=O)[O-], the activity coefficient runs as follows: (338.15 K) 0.38 ± 0.03; (348.15 K) 0.29 ± 0.03; (358.15 K) 0.24 ± 0.03; (368.15 K) 0.2 ± 0.03.

These data come from the NIST ThermoML archive (doi:10.1021/acs.jced.5b00919).
